Source: patent US20090214434A1, “METHOD OF DETECTING AND TREATING ALLOGENIC CELLS RESPONSIBLE FOR ENDOMETRIOSIS” (priority 2004, published 2009)

Legend:
endometriomas = experiment: Human clinical trial: resolution or growth of endometriomas followed by monthly ultrasound under TFI chemotherapy and antioxidant counter therapy; format: in vivo
Text: When TFI chemotherapy is stopped to allow the thyroid a rest, we see a general improvement in iron scavenging at lower dose rates afterwards (which hints at a multi-step process that can be slowly poisoned, most probably by I^− to tri-iodide) and usually a recovery to visibility in those in-completely resolved endometriomas during this treatment hiatus. We timed this 3rd party evidence trial to happen as we approached a pre-planned thyroid rest period, taking monthly ultrasounds before to position each active endometrioma as closely as possible, and include three such rest periods, plus two thyroid examinations.
The simplest test was to gently down-regulate the CMI in a patient while that patient was still on TFI chemotherapy, and to observe what happens next. The patient then took 800 international units of vitamin E a day (as a tocopherol). […] A second antioxidant, dietary zinc (10 mg/day), was added to the regimen. Use of both antioxidants allowed us to say that this was not a special case for either antioxidant, though the cumulative effects were very obvious. Vitamin E was stopped two weeks before zinc, to provide a period of zinc only. TFI-induced resolution was still blocked.
The patient then went into their thyroid rest period, and as usual a few recently but incompletely resolved endometriomas developed, but so did two that had been thought resolved from two years ago for a total of five.

[1] = Ghent et al (1993); U.S. Pat. No. 4,555,347; cited from earlier work
[2] = test system: normal self-cells of the uterus; experiment: Transvaginal ultrasound of uterine lining / normal self-cells of the uterus, and menstrual period cycle, in the same patient; format: in vivo, human; settings: patient taking aspirin with TFI
Text: In using transvaginal ultra sound, it was possible to view and compare the thickness of the uterine lining, and no abnormal change was observed despite all the activity in the peritoneal cavity.
It should be noted that use of counter chemotherapy produced no change in those similar normal self-cells of the uterus as detectable by ultrasound. All of these ultrasounds were taken at 3 to four days after the patient's periods, except the last one as they had their period cycle extended by taking aspirin.

Compound: II [TFI, thermodynamically free iodine]
- clean-up of endometrial cell debris, aberrant organ attachments, endometriomas and stratum functional cell masses (endometriomas; clinical tests (FIG. 2), patients, administration of iodine): effective
- time for resolution of endometriomas (Stage I to Stage IV process) (endometriomas; otherwise takes about 15 years without TFI): about one or two
- pain (endometriomas; use of TFI in the endometriosis patient): relief from pain
- toxicity compared with other forms of iodine [1]: least toxicity of all forms of iodine

Compound: CC(=O)Oc1ccccc1C(=O)O [aspirin, acetylsalicylic acid]
- period cycle [2]: extended

Compound: Cc1c(C)c2c(c(C)c1O)CC[C@@](C)(CCC[C@H](C)CCC[C@H](C)CCCC(C)C)O2 [vitamin E, alpha tocopherol]
- change in endometriomas (number and size) (endometriomas; patient still on TFI chemotherapy, 800 international units of vitamin E a day): Minor change was observed, with new endometriomas developing and old ones rapidly increasing in size

Compound: [Zn] [zinc]
- TFI-induced resolution of endometriomas (endometriomas; period of zinc only (vitamin E stopped two weeks before zinc), dietary zinc 10 mg/day, on TFI): still blocked
